Columns and labels:
human HDAC4 = biological target: T1, human HDAC4 (Homo sapiens, UniProt P56524); test: HDAC-inhibiting activity, coumarin-labeled acetylated histone peptide assay; format: biochemical; conditions: human HDAC4 from transfected 293T cells; 37° C., 30 minutes; read-out: HDAC-inhibiting activity IC50 HDAC4
T1 construct: made in house; host or cells: 293T cells (transient transfection, anti-FLAG immunoprecipitation, FLAG peptide elution)
Method: In carrying out HDAC-inhibiting activity measurements, HDAC solutions were prepared in the following manner. […] The human HDAC1 expression vector used was pcDNA3-HD1 (Yang, W. M., Yao, Y. L., Sun, […]. & Seto, E. (1997) J. Biol. Chem. 272, 28001-28007), the human HDAC4 expression vector used was pcDNA3-HD4 ([…]., Nagase, […]. Biol. Chem. 274, 11713-11720), and the murine HDAC6 expression vector used was pcDNA3-mHDA2/HDAC6 ([…]. Biol. Chem. 274, 2440-2445). After 24 hours of incubation, cells were recovered, washed with PBS, suspended in lysis buffer (50 mM Tris-HCl (pH 7.5), 120 mM NaCl, 5 mM EDTA, 0.5% Nonidet P-40), and sonicated. The supernatant was collected by centrifugation and then deprived of nonspecific proteins using Protein A/G plus agarose beads (Santa Cruz Biotechnologies, Inc.). Thereafter, anti-FLAG M2 antibody (Sigma-Aldrich Inc.) was added, and the reaction was allowed to proceed at 4° C. for 2 hours. To this were added agarose beads, the reaction was allowed to proceed at 4° C. for 3 hours, and the agarose beads were washed three times with lysis buffer and then once with HD buffer (20 mM Tris-HCl (pH 8.0), 150 mM NaCl, 10% glycerol). […] HDAC-inhibiting activity evaluation in each in vitro system was made as follows. Each test compound was dissolved in DMSO, a stock solution with a concentration of 10 mM was thus prepared and this was used as an inhibitor stock solution. The assay was carried out by incubating the HDAC solution and a coumarin-labeled acetylated histone peptide solution in the presence of the test compound at 37° C. for 30 minutes (reaction volume 20 μl). To the reaction mixture was added 30 μl of trypsin, and the aminomethylcoumarin released by the enzymatic reaction was assayed using a fluorescent plate reader. In a negative control assay, no inhibitor was added to the reaction system and the same procedure was carried out.

[1] = test system: human wild type p21 promoter; test: p21 promoter assay (luciferase) in MFLL-9 cells; format: cell-based; conditions: 20 hours, concentration giving 1000% luminescence relative to negative control (100%)
Method: As an HDAC-inhibiting activity in an […] system, the following measurement was carried out using the p21 promoter inducing activity as an index. MFLL-9 cells used in the experiment are cells stably retaining a fusion gene (Dr. B. Vogelstaein) from the human wild type p21 promoter and luciferase gene. They were cultured using phenol red-free DMEM supplemented with 10% FBS in a steam-saturated incubator at 37° C. in the presence of 5% carbon dioxide. These MFLL-9 cells were sowed onto a 96-well microplate at a cell density of 2×10^4 cells/well and, after 24 hours of cultivation in 99 μl, per well, of the medium mentioned above, each test compound solution was added, followed by 20 hours of incubation. […] In a negative control, the same procedure was carried out without adding any inhibitor to the reaction system.
Using Luciferase Assay Reagent (Promega), the intensity of the luminescence due to the product of the enzymatic reaction involving luciferase expressed within cells was measured.

[2] = test system: brain tumor cell line SNB-75; test: Human cancer cell line panel, proliferation (sulforhodamine B); format: cell-based; conditions: SNB-75, 2 days of cultivation; read-out: 50% inhibitory concentration, proliferation
Excerpt: (§1) The characteristics of the human cancer cell proliferation-inhibiting activity of the compounds of the present invention were examined by the “method of evaluating the mechanisms of action of compounds using a panel of human cancer cell lines” as proposed by Yamori et al. (cf. Gan to Kagaku Ryoho (Cancer and Chemotherapy) 29 Suppl. II (2002) and Cancer Chemother. Pharmacol. 52 Suppl. I, S74-79 (2003)).
(§2) This system includes […] (7 lung cancer, 6 stomach cancer, 5 colon cancer, 5 ovarian cancer, 6 brain tumor, […], 2 kidney cancer and 2 prostate cancer cell lines as well as one melanoma line) and the method comprises measuring the in vitro drug susceptibilities of those cancer cell lines and expressing the differences in drug susceptibility among the respective cancer cell lines as a fingerprint. […] By utilizing this property, it is possible to estimate the mechanisms of action of a compound. The above method is also characterized in that an anticancer substance showing new and unique mechanisms of action different from those of the existing anticancer agents can be selected.
(§3) Cancer cells of each cell line are sowed onto a 96-well plate, a sample solution is added on the next day and, after 2 days of cultivation, the cell proliferation is measured by colorimetry using sulforhodamine B. The deviations in effective concentration for the respective cancer cell lines from the mean effective drug concentration for the 39 cancer cell lines subjected to measurement are calculated and shown in the form a fingerprint.

[3] = test system: colon cancer cell line HCC2998; test: as above; format: cell-based; conditions: HCC2998, 2 days of cultivation; read-out: 50% inhibitory concentration, proliferation
Excerpt: as §1, §2, §3

[4] = test system: lung cancer cell line NCI-H23; test: as above; format: cell-based; conditions: NCI-H23, 2 days of cultivation; read-out: 50% inhibitory concentration, proliferation
Excerpt: as §1, §2, §3

[5] = test system: melanoma cell line LOX-IMVI; test: as above; format: cell-based; conditions: 2 days of cultivation, read-out: 50% inhibitory concentration, proliferation
Excerpt: as §1, §2, §3

[6] = test system: breast cancer cell line BSY-1; test: as above; format: cell-based; conditions: BSY-1, 2 days of cultivation; read-out: 50% inhibitory concentration, proliferation
Excerpt: as §1, §2, §3

[7] = test system: prostate cancer cell line DU-145; test: as above; format: cell-based; conditions: DU-145, 2 days of cultivation; read-out: 50% inhibitory concentration, proliferation
Excerpt: as §1, §2, §3

[8] = test system: brain tumor cell line SF-539; test: as above; format: cell-based; conditions: SF-539, 2 days of cultivation; read-out: 50% inhibitory concentration, proliferation
Excerpt: as §1, §2, §3

[9] = test system: stomach cancer cell line MKN1; test: as above; format: cell-based; conditions: MKN1, 2 days of cultivation; read-out: 50% inhibitory concentration, proliferation
Excerpt: as §1, §2, §3

[10] = test system: lung cancer cell line A549; test: as above; format: cell-based; conditions: A549, 2 days of cultivation; read-out: 50% inhibitory concentration, proliferation
Excerpt: as §1, §2, §3

[11] = test system: lung cancer cell line DMS114; test: as above; format: cell-based; conditions: DMS114, 2 days of cultivation; read-out: 50% inhibitory concentration, proliferation
Excerpt: as §1, §2, §3

[12] = test system: colon cancer cell line HCT-116; test: as above; format: cell-based; conditions: HCT-116, 2 days of cultivation; read-out: 50% inhibitory concentration, proliferation
Excerpt: as §1, §2, §3

[13] = test system: lung cancer cell line NCI-H226; test: as above; format: cell-based; conditions: NCI-H226, 2 days of cultivation; read-out: 50% inhibitory concentration, proliferation
Excerpt: as §1, §2, §3

T1 sequence (P56524 whole entry): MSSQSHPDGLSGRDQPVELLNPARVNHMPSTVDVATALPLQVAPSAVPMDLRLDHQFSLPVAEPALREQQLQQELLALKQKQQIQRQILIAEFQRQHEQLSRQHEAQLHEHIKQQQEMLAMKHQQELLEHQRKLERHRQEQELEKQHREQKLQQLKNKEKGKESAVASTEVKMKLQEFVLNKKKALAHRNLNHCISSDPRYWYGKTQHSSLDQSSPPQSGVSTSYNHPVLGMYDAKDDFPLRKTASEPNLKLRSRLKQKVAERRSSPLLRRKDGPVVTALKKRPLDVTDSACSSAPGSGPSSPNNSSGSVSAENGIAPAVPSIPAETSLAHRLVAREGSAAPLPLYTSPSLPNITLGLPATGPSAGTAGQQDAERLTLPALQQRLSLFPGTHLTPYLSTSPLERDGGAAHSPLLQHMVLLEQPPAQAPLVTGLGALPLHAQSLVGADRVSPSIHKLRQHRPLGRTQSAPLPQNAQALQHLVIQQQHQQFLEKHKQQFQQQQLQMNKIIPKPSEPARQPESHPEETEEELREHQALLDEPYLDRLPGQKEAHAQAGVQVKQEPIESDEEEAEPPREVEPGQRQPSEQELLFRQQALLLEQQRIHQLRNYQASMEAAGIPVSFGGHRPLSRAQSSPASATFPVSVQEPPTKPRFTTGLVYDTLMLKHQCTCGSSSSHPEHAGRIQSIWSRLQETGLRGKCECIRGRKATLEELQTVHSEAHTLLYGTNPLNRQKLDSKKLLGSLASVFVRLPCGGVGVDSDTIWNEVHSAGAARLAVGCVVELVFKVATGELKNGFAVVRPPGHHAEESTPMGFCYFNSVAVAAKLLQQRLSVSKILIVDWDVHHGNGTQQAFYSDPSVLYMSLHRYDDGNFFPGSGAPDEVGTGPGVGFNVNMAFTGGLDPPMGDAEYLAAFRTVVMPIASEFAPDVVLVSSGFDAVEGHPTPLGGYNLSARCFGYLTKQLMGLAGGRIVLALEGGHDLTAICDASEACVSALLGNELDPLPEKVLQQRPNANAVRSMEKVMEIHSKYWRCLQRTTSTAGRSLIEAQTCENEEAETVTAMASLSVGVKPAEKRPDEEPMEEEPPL
T1 sequence (O15379 whole entry, further chain): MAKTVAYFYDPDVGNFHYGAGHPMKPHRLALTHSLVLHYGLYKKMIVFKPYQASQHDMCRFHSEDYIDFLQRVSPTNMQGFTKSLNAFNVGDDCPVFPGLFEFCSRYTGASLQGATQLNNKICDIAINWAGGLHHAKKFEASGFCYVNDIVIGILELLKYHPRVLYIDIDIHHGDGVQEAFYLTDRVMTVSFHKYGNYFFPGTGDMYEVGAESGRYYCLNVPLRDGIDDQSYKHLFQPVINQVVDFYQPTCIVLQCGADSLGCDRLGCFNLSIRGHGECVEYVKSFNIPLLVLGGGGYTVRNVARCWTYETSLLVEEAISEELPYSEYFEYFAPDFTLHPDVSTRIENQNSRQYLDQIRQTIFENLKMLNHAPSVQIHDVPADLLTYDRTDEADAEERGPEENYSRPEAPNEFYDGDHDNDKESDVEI

IC50 (human HDAC4) | IC50 [2] | IC50 [3] | IC50 [4] | IC50 [5] | IC50 [6] | IC50 [7] | IC50 [8] | IC50 [9] | IC50 [10] | IC50 [11] | IC50 [12] | IC50 [13] | SMILES | p21 promoter activity EC1000 [1]
25 nM | ≤ 100 nM | ≤ 100 nM | ≤ 100 nM | ≤ 100 nM | ≤ 100 nM | ≤ 100 nM | ≤ 100 nM | ≤ 100 nM | ≤ 100 nM | ≤ 100 nM | ≤ 100 nM | ≤ 100 nM | CC1(C)NC(=O)[C@H](CCCCCSCc2ccncc2)NC(=O)[C@H]2CCCN2C(=O)[C@H](Cc2ccccc2)NC1=O [Ky-26, cyclo(-L-Am7(4-pyridylmethyl)-Aib-L-Phe-D-Pro-)] | 0.010 µM
1600 nM | ≤ 100 nM | ≤ 100 nM | ≤ 100 nM | ≤ 100 nM | ≤ 100 nM | ≤ 100 nM | ≤ 100 nM | ≤ 100 nM | ≤ 100 nM | ≤ 100 nM | ≤ 10 nM | ≤ 100 nM | CC(=O)CSCCCCC[C@@H]1NC(=O)[C@H]2CCCN2C(=O)[C@H](Cc2ccccc2)NC(=O)C(C)(C)NC1=O [Ky-72, cyclo(-L-Am7(acetonyl)-Aib-L-Phe-D-Pro-)] | 0.031 µM
